Laboratory results reported in the NIST ThermoML archive (doi:10.1016/j.jct.2005.07.009).

Experiments:
[1] = xn = mol fraction of the nth substance listed; conditions: 298.15 K, 101 kPa, Liquid, Vibrating tube method
[2] = excess molar enthalpy (molar enthalpy of mixing); xn = mol fraction of the nth substance listed; conditions: 298.15 K, 101 kPa, Liquid

BrCCCCCCBr [1,6-dibromohexane] + CCCCC(=O)OCC
Conditions | excess molar enthalpy [kcal/mol] | mass density [kg/m3]
[1], x2 = 0.0648 | – | 1555.13
[1], x2 = 0.1774 | – | 1474.02
[1], x2 = 0.2329 | – | 1433.91
[1], x2 = 0.2964 | – | 1387.86
[1], x2 = 0.4137 | – | 1302.47
[1], x2 = 0.5312 | – | 1216.59
[1], x2 = 0.5868 | – | 1175.74
[1], x2 = 0.6906 | – | 1099.24
[1], x2 = 0.7612 | – | 1047.08
[1], x2 = 0.819 | – | 1004.24
[1], x2 = 0.8814 | – | 957.89
[1], x2 = 0.934 | – | 918.67
[2], x2 = 0.0622 | 0.00727 | –
[2], x2 = 0.1322 | 0.011 | –
[2], x2 = 0.2027 | 0.0138 | –
[2], x2 = 0.2702 | 0.015 | –
[2], x2 = 0.3359 | 0.0146 | –
[2], x2 = 0.3944 | 0.0124 | –
[2], x2 = 0.4464 | 0.00935 | –
[2], x2 = 0.4901 | 0.00566 | –
[2], x2 = 0.5274 | 0.00182 | –
[2], x2 = 0.5624 | -0.00213 | –
[2], x2 = 0.6245 | -0.00614 | –
[2], x2 = 0.6853 | -0.00767 | –
[2], x2 = 0.7481 | -0.00784 | –
[2], x2 = 0.8143 | -0.00715 | –
[2], x2 = 0.8791 | -0.00547 | –
[2], x2 = 0.947 | -0.00327 | –

BrCCCBr [1,3-dibromopropane] + CCOC=O
Conditions | excess molar enthalpy [kcal/mol] | mass density [kg/m3]
[1], x2 = 0.0717 | – | 1908.92
[1], x2 = 0.1454 | – | 1844.11
[1], x2 = 0.2149 | – | 1781.28
[1], x2 = 0.2791 | – | 1721.26
[1], x2 = 0.3468 | – | 1656.48
[1], x2 = 0.4099 | – | 1594.33
[1], x2 = 0.4685 | – | 1534.98
[1], x2 = 0.5893 | – | 1407.8
[1], x2 = 0.6459 | – | 1345.63
[1], x2 = 0.6988 | – | 1285.95
[1], x2 = 0.7521 | – | 1224.47
[1], x2 = 0.8028 | – | 1164.26
[1], x2 = 0.8548 | – | 1101.12
[1], x2 = 0.9056 | – | 1037.67
[2], x2 = 0.0727 | 0.0421 | –
[2], x2 = 0.1458 | 0.0721 | –
[2], x2 = 0.2104 | 0.0959 | –
[2], x2 = 0.2886 | 0.113 | –
[2], x2 = 0.3588 | 0.123 | –
[2], x2 = 0.4253 | 0.126 | –
[2], x2 = 0.4828 | 0.125 | –
[2], x2 = 0.5358 | 0.122 | –
[2], x2 = 0.5812 | 0.116 | –
[2], x2 = 0.6324 | 0.109 | –
[2], x2 = 0.6925 | 0.0965 | –
[2], x2 = 0.7529 | 0.0811 | –
[2], x2 = 0.8177 | 0.062 | –
[2], x2 = 0.882 | 0.0414 | –
[2], x2 = 0.9449 | 0.021 | –

BrCCCBr [1,3-dibromopropane] + CCOC(=O)CC
Conditions | excess molar enthalpy [kcal/mol] | mass density [kg/m3]
[1], x2 = 0.1075 | – | 1839.36
[1], x2 = 0.161 | – | 1775.98
[1], x2 = 0.2159 | – | 1711.67
[1], x2 = 0.2732 | – | 1645.81
[1], x2 = 0.3842 | – | 1520.67
[1], x2 = 0.4468 | – | 1451.66
[1], x2 = 0.5011 | – | 1392.66
[1], x2 = 0.5622 | – | 1327.28
[1], x2 = 0.6827 | – | 1201.05
[1], x2 = 0.7443 | – | 1137.95
[1], x2 = 0.8686 | – | 1013.23
[2], x2 = 0.0471 | 0.00559 | –
[2], x2 = 0.1006 | 0.0087 | –
[2], x2 = 0.1564 | 0.00918 | –
[2], x2 = 0.2139 | 0.00786 | –
[2], x2 = 0.2707 | 0.00387 | –
[2], x2 = 0.3244 | -0.000813 | –
[2], x2 = 0.3765 | -0.00605 | –
[2], x2 = 0.4201 | -0.0111 | –
[2], x2 = 0.4478 | -0.0156 | –
[2], x2 = 0.4591 | -0.0195 | –
[2], x2 = 0.493 | -0.0144 | –
[2], x2 = 0.4983 | -0.0205 | –
[2], x2 = 0.5563 | -0.0245 | –
[2], x2 = 0.6207 | -0.026 | –
[2], x2 = 0.6908 | -0.0251 | –
[2], x2 = 0.7671 | -0.0219 | –
[2], x2 = 0.8476 | -0.0164 | –
[2], x2 = 0.9262 | -0.00906 | –

BrCCCCCCBr [1,6-dibromohexane] + CCOC(=O)CC
Conditions | excess molar enthalpy [kcal/mol] | mass density [kg/m3]
[1], x2 = 0.0785 | – | 1558.6
[1], x2 = 0.1542 | – | 1515.02
[1], x2 = 0.223 | – | 1474.07
[1], x2 = 0.2897 | – | 1432.85
[1], x2 = 0.3566 | – | 1390.07
[1], x2 = 0.4169 | – | 1350.15
[1], x2 = 0.5364 | – | 1266.98
[1], x2 = 0.595 | – | 1224.16
[1], x2 = 0.6523 | – | 1181.7
[1], x2 = 0.7055 | – | 1139.41
[1], x2 = 0.7573 | – | 1097.77
[1], x2 = 0.8052 | – | 1058.09
[1], x2 = 0.8583 | – | 1012.69
[1], x2 = 0.9041 | – | 972.41
[2], x2 = 0.0655 | 0.0105 | –
[2], x2 = 0.1421 | 0.0184 | –
[2], x2 = 0.2176 | 0.0235 | –
[2], x2 = 0.2889 | 0.0262 | –
[2], x2 = 0.3565 | 0.0268 | –
[2], x2 = 0.4183 | 0.0255 | –
[2], x2 = 0.4746 | 0.0226 | –
[2], x2 = 0.5242 | 0.0188 | –
[2], x2 = 0.5687 | 0.0148 | –
[2], x2 = 0.5968 | 0.0125 | –
[2], x2 = 0.6497 | 0.00894 | –
[2], x2 = 0.7061 | 0.00605 | –
[2], x2 = 0.7663 | 0.0043 | –
[2], x2 = 0.8256 | 0.00308 | –
[2], x2 = 0.8846 | 0.00189 | –
[2], x2 = 0.9439 | 0.000693 | –
